Results as given in patent publication US20060293309A1, “Method of treating disorders and conditions using peripherally-restricted antagonists and inhibitors” (Dynogen Pharmaceuticals, Inc., priority 2005, published 2006).

Experiments:
cisplatin-induced emesis = assay: cisplatin-induced retching and vomiting in the ferret; format: in vivo, ferret (Mustela putario furo); details: 5 mg/kg and 10 mg/kg i.p., 6 h observation
Description: The suitability of a compound of the invention to reduce retching and vomiting therapeutically is assessed in an accepted animal model of cytotoxin-induced emesis. Specifically, the experiments described herein are used to investigate the effect of a compound to reduce cisplatin-induced retching and/or vomiting in the ferret. Ondansetron is used as a positive control in the model, in view of its known antiemetic activity (Rudd and Naylor, Eur. J. Pharmacol., 322: 79-82 (1997)).
Adult male ferrets (Mustela putario furo) weighing 1200-1880g are purchased from Triple F Farns (Sayre, Pa.) and housed in individual cages at standardized conditions (12:12 h light/dark cycle and 21-23° C.). […]
Experiments are performed essentially as follows. […] Following administration of the cisplatin and either the test compound, ondansetron (control) or vehicle alone, the occurrence of retching and vomiting is monitored for a period of 6 hours. […] The latency of the retching or vomiting response and the number of episodes are recorded for each animal and are summarized for each experimental group (Wright et al., Infect. Immun., 68(4): 2386-9 (2000)). […]
Cisplatin is expected to induce an emetic response in 100% of the animals receiving vehicle alone. […] The mean latency of the first response post-cicplatin administration is also determined.

[1] = biological target: T1, 5-HT3 human recombinant receptors from HEK-293 cells (Homo sapiens, UniProt P46098); assay: 5-HT3 human recombinant binding assay ([3H]GR 65630)
T1 construct: expressed in transfected cells; host or cells: HEK-293
T1 sequence (P46098 24-478): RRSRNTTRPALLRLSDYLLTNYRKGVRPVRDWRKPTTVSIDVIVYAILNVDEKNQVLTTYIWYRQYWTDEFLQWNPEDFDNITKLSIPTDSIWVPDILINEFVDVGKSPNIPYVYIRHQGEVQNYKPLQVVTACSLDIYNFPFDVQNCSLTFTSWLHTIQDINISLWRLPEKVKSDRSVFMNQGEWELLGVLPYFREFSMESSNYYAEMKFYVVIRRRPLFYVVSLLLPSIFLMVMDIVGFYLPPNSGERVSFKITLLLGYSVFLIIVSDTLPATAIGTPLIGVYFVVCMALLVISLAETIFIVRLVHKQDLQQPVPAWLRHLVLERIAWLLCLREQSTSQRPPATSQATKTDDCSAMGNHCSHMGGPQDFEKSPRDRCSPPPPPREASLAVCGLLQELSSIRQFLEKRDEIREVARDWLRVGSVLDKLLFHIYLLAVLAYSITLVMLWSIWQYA
Description: (§1) The binding of MCI 225 QUAT to various receptors/transporters was compared to that of the non-quaternized parent compound, MCI-225. Binding assays were performed essentially according to procedures as follows.
The 5-HT3 human recombinant binding assay was performed essentially as described in Lummis et al. (1990) Eur. J. Pharmacol. 189:223-27; Hoyer et al. (1988) Mol. Pharmacol. 33:303; and Tyers et al. (1991) Therapie 46:431-435. Briefly, human recombinant receptors were from HEK-293 cells. Tritiated radioligand (GR 65630) was used. % specific binding was determined as a function of log [compound]. MDL 72222 (1 alpha H, 3 alpha, 5 alpha H-tropan-3-yl-3,5-dichlorobenzoate) was used as nonspecific determinant, reference compound and positive control.

[2] = biological target: T2, norepinephrine transporter (NET), human recombinant from CHO cells (Homo sapiens, UniProt P23975); assay: norepinephrine transporter (NET) binding assay ([3H]nisoxetine)
T2 construct: expressed in transfected cells; host or cells: CHO
T2 sequence (P23975 whole entry): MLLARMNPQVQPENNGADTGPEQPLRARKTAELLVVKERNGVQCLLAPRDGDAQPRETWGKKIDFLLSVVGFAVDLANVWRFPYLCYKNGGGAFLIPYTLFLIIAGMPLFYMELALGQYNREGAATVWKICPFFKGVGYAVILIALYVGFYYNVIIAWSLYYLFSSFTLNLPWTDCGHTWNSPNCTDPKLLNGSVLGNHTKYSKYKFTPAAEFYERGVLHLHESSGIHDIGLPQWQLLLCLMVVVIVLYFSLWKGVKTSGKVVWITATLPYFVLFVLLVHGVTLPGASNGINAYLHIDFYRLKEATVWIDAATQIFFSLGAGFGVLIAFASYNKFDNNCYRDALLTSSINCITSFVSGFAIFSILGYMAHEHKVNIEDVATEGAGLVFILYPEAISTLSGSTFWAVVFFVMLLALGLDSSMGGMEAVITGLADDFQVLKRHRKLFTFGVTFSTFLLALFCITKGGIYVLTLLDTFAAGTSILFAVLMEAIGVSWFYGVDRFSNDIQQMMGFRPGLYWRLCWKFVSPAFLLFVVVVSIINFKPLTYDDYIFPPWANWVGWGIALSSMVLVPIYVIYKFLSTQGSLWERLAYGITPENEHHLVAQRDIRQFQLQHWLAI
Description: as §1
The norepinephrine transporter (NET) assay was performed essentially as described in Raisman et al. (1982) Eur. J. Pharmacol. 78:345-351 (minor modifications); and Raisman and Briley (1981) Eur. J. Pharmacol. 72:423. Briefly, human recombinant receptors were from CHO cells. Tritiated radioligand (nisoxetine) was used. % specific binding was determined as a function of log [compound]. Desipramine (DMI) was used as nonspecific determinant, reference compound and positive control.

[3] = biological target: T3, serotonin transporter (SERT), human platelet membranes (Homo sapiens, UniProt P31645); assay: serotonin transporter (SERT) binding assay ([3H]N-methyl citalopram)
T3 construct: Briefly, human recombinant receptors were from human platelet membranes; from tissue; host or cells: human platelet membranes
T3 sequence (P31645 whole entry): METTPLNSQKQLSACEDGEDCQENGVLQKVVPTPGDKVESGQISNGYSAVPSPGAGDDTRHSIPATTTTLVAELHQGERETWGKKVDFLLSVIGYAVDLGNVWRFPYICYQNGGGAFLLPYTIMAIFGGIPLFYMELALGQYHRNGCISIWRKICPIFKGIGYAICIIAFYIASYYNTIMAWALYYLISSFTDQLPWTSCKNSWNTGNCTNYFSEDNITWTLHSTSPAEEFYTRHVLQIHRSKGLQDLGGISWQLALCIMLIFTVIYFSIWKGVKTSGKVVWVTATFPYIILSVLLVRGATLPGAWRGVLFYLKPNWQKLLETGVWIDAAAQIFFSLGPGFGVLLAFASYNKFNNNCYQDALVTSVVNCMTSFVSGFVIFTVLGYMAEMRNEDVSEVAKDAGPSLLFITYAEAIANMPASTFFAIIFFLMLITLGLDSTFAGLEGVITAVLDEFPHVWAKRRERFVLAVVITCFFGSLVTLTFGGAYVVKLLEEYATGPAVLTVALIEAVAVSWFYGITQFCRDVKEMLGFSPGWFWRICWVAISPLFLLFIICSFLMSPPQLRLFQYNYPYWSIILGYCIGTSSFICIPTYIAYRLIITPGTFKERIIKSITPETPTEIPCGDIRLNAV
Description: Binding assays were performed essentially according to procedures as follows.
The serotonin transporter (SERT) assay was performed essentially as described in D'Armato et al. (1987) J. Pharmacol. & Exp. Ther. 242:364-371 (with modification); and Brown et al. (1986) Eur. J. Pharmacol. 123:161-165. Briefly, human recombinant receptors were from human platelet membranes. Tritiated radioligand (N-methyl citalopram) was used. % specific binding was determined as a function of log [compound]. Imipramine was used as nonspecific determinant, reference compound and positive control.

| 5-HT3 (hr) % specific binding ([1]; Conc. 1.00E−06) [%] | 5-HT3 (hr) % specific binding ([1]; Conc. 1.00E−08) [%] | 5-HT3 (hr) % specific binding ([1]; Conc. 1.00E−10) [%] | NET (hr) % specific binding ([2]; Conc. 1.00E−06) [%] | NET (hr) % specific binding ([2]; Conc. 1.00E−08) [%] | NET (hr) % specific binding ([2]; Conc. 1.00E−10) [%] | SERT (h) % specific binding ([3]; Conc. 1.00E−06) [%] | SERT (h) % specific binding ([3]; Conc. 1.00E−08) [%] | SERT (h) % specific binding ([3]; Conc. 1.00E−10) [%] | Compound | latency of the first emetic response induced by cisplatin (cisplatin-induced emesis) | number of emetic events induced by cisplatin (cisplatin-induced emesis) |
| --- | --- | --- | --- | --- | --- | --- | --- | --- | --- | --- | --- |
| – | – | – | – | – | – | – | – | – | Cc1nccn1CC1CCc2c(c3ccccc3n2C)C1=O (centres unmarked) [Ondansetron, ondansetron] | increase the latency | reduce the number of emetic events |
| 100 | 22 | 0 | 104 | 72 | 17 | 94 | 10 | 1 | Cc1cc2c(-c3ccccc3F)nc(N3CCNCC3)nc2s1 [compound 225, 4-(2-fluoro-phenyl)-6-methyl-2-piperazin-1-yl-thieno[2,3-d]pyrimidine] | – | – |
